The target of test [1] is human mGluR2 (Homo sapiens (Human), UniProt Q14416). Nature of the test: [35S]GTPγS binding assay (Affinity to mGluR2). In kind it is biochemical. The following applies: cell membrane fraction of HEK293 cells stably expressing human mGluR2; glutamic acid 10 μM. In a few lines: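 Membranes from HEK293 cells stably co-expressing human mGluR2 and SLC1A3 (1.8–3 μg protein) preincubated with compound 30 min at RT, then stimulated with 10 μM glutamate 15 min; [35S]GTPγS (0.8 kBq) with WGA-SPA beads 1 h, buffer with 3 μM GDP, 100 mM NaCl, 1 mM MgCl2. IC50 from inhibition of glutamate-specific binding.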
(Binding of GTPγS marks nucleotide exchange on a G protein.)

Test [2] relates to Long-Evans rats. Put plainly: Novel Object Recognition (NOR) test in rats with scopolamine-induced cognitive impairment. The following applies: male Long-Evans rats, scopolamine 0.3 mg/kg i.p.; statistically significant difference in discrimination index vs scopolamine alone group. In kind it is in vivo, rat. How it is done: Six-week old male Long-Evans rats were used for this test. For 2 days before starting the test, the rats were acclimated to experimental operations such as administration and a test device (that is, a black or gray plastic cage with a width of 40 cm, a depth of 30 cm and a height of 45 cm). Each test compound was dissolved in a 0.1 N hydrochloric acid to be orally administered. Thirty minutes after the administration, scopolamine hydrobromide was intraperitoneally administered at a 0.3 mg/kg dose, so as to induce cognitive impairment. After another 30 minutes, each rat was acclimated in the test device for 3 minutes, and thereafter, two blocks in the same shape were put in the test device as acquisition trial, and exploring time for each block was measured for 5 minutes. Two hours after the acquisition trial, the rat was acclimated in the test device for 3 minutes, and thereafter, the same block as those used in the acquisition trial and a new block in a different shape were put in the cage for retention trial. The exploring time for each block was measured for 3 minutes, and a ratio of the exploring time for the newly used block to the sum of the exploring times for the respective blocks was calculated as a discrimination index. The thus obtained discrimination indexes were compared among a group of rats to which a medium alone was administered (medium group), a group of rats to which scopolamine alone was administered (scopolamine alone group) and a group of rats to which both the test compound and scopolamine were administered, so as to evaluate the action of the test compound on the novel object recognition function (cognitive function) of the rats.
Each discrimination index was shown as an average and a standard error. The statistical significance between the medium group and the scopolamine alone group was analyzed by the independent t-test. The statistical significance between the scopolamine alone group and each sample group was analyzed by one-way analysis of variance and then by Dunnett's multiple comparison test. The significance level was set to 5% on both sides. […] The analysis was carried out by using Prism 5 for Windows for Japanese, ver. 5.03.
A minimum effective dose at which a statistically significant difference was found between a group suffering from the cognitive impairment induced by scopolamine and a group treated with each compound is shown in Table 10.

Marks after values point to notes of the source that are not given here. Bounds are passed on as bounds.

In general, IC50 refers to the concentration that gives 50% inhibition.

Sequence of human mGluR2 (Q14416 19-872): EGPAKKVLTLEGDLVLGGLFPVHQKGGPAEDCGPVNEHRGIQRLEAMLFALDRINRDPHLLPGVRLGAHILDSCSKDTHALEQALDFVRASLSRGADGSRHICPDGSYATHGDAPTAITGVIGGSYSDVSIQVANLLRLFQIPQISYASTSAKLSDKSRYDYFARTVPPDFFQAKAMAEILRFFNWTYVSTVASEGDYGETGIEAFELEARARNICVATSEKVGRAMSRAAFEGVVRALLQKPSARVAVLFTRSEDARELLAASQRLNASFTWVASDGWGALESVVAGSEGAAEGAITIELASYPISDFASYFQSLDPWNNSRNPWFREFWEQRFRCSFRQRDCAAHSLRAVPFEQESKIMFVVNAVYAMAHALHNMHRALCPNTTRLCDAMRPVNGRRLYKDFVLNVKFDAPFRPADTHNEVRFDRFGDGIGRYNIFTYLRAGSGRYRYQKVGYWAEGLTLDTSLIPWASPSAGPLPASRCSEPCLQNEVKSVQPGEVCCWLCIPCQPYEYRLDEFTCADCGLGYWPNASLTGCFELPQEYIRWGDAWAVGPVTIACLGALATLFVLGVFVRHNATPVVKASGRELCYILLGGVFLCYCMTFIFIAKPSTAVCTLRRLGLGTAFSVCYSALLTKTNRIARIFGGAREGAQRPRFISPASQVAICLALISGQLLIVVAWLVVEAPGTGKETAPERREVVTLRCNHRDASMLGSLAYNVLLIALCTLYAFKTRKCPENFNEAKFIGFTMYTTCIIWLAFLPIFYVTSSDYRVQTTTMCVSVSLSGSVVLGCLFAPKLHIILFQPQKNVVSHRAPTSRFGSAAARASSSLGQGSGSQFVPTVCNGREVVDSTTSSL

As to `Cc1cc(-c2nc(-c3ccc(OC(F)F)c(C)c3)n3c2CCO[C@H](C)C3)cc(C)n1` [Example 14, (R)-3-(4-(difluoromethoxy)-3-methylphenyl)-1-(2,6-dimethylpyridin-4-yl)-6-methyl-5,6,8,9-tetrahydroimidazo[1,5-d][1,4]oxazepine], in test [1], the IC50 turned out to be 5.6 nM. Moreover, the Minimum effective dose in test [2] is recorded as 1 mg/kg, p.o.
Consider `COc1cc(-c2nc(-c3cc(C)nc(C)c3)c3n2C[C@@H](C)OCC3)ccc1Cl` [Example 1, (R)-3-(4-chloro-3-methoxyphenyl)-1-(2,6-dimethylpyridin-4-yl)-6-methyl-5,6,8,9-tetrahydroimidazo[1,5-d][1,4]oxazepine], for which, in test [1], the IC50 amounted to 10 nM. Also, in test [2], the Minimum effective dose is reported as 3 mg/kg, p.o.
Regarding `COc1cc(-c2nc(-c3cc(C)nc(C)c3)c3n2C[C@@H](CF)OCC3)ccc1Cl` [Example 11, (S)-3-(4-chloro-3-methoxyphenyl)-1-(2,6-dimethylpyridin-4-yl)-6-fluoromethyl-5,6,8,9-tetrahydroimidazo[1,5-d][1,4]oxazepine], in test [1], the IC50 is 11.4 nM. The Minimum effective dose in test [2] is given as >1* mg/kg, p.o.
In test [1], `COc1cc(-c2nc(-c3cc(C)nc(C)c3)c3n2CCOCC3)ccc1Cl` [Example 44] showed a 50% inhibitory concentration (IC50) of 22.3 nM. Further, the Minimum effective dose in test [2] is on record as 1 mg/kg, p.o.
As to `COc1cc(-c2nc(-c3cc(C)nc(C)c3)c3n2C[C@@H](C)OCC3)ccc1C(F)(F)F` [Example 7, (R)-1-(2,6-dimethylpyridin-4-yl)-3-(3-methoxy-4-(trifluoromethyl)phenyl)-6-methyl-5,6,8,9-tetrahydroimidazo[1,5-d][1,4]oxazepine], the IC50 in test [1] is 4.2 nM. The Minimum effective dose in test [2] is 0.3 mg/kg, p.o.

Source of the values: patent publication US9458176B2, “Tetrahydroimidazo(1,5-D)[1,4]oxazepine derivative” (Eisai R&D Management Co., Ltd., priority 2013, dated 2016).
